Source: patent US9260382B2, “Methods of reducing virulence in bacteria” (priority 2010, dated 2016)
Where “and” joins values, the source holds several entries; their conditions need not be identical. Equal values may be shown once.

Columns and labels:
[1] = test system: mrp promoter (reference gene); test: GFP reporter plasmid pmrp, flow cytometry (reference gene); format: cell-based, Dickeya dadantii 3937; conditions: for mean fluorescence intensity of GFP, mrp promoter: 3937 (pmrp), MM + 100 μM
Experimental: (§1) FACS analysis of promoter activity of dspE, hrpA, hrpL, hrpN, and hrpS was carried out as described (Peng et al., 2006). Briefly, the wild-type Ech3937 and the mutant strains carrying the promoter reporter plasmid were grown on LB broth at 28° C. overnight and transferred to appropriate media. For FACS analysis, samples were collected by centrifugation, washed with 1× phosphate buffer saline (PBS) at 13,000 rpm for 1 min, and re-suspended in 1×PBS to ca 10^6 CFU/ml prior to being run in a FACS Calibur flow cytometer (BD Biosciences, CA). Three replicates were performed for each treatment.
Since OCA and TCA induced the expression of hrpN, the effect of these two phenolic compounds on the expression of hrpA, hrpL, and hrpS was investigated further. […] GFP intensity was determined on gated populations of bacterial cells by flow cytometry and analyzed with the Cell Quest software (BD Biosciences, San Jose, Calif.). The lines labeled “1” stand for the GFP expression control base level of the Ech3937 containing pPROBE-AT vector; lines labeled “2” stand for the promoter activity of hrpS, hrpL, hrpA and hrpN in Ech3937 in MM; lines labeled “3” stand for the promoter activity of Ech3937 in MM supplemented with 0.1 mM OCA; lines labeled “4” stand for the promoter activity of hrpL mutant WPP96 in MM; lines labeled “5” stand for the promoter activity of hrpL mutant WPP96 in MM supplemented with 0.1 mM OCA. Values are representative of at least two experiments. […] Compared with MM alone, the average GFP fluorescence intensity of bacterial cells of Ech3937 (phrpA) was doubled when 0.1 mM of OCA and TCA were added to the medium (Table 4; FIG. 3). […] The mrp, whose protein product has an ATPase conserved domain (2e-06), was used as a reference gene in this study.

[2] = test system: pPROBE-AT vector without promoter insert; test: pPROBE-AT vector control, flow cytometry; format: cell-based, Dickeya dadantii 3937; conditions: for GFP Mean Fluorescence Intensity, vector control: Ech3937 (pPROBE-AT), MM + 0.1 mM compound; for mean fluorescence intensity of GFP, vector control: 3937 (pPROBE-AT), MM + 100 μM
Experimental: as §1

[3] = test system: Dickeya dadantii 3937 (Ech3937); test: Bacterial growth in MM supplemented with compound; format: cell-based; conditions: compound added into the MM
Text: Phenolic compounds constitute an important class of organic substances produced by plants. The phenolic compound SA is a signaling molecule that plays a role in host defenses. OCA and TCA are the biosynthetic precursors of SA and are also reported to induce the expression of defense-related genes in plants. OCA, TCA, and SA were examined to elucidate their effects on the expression of T3SS genes. The expression of the T3SS gene hrpN was examined in MM and MM supplemented with OCA, TCA, and SA, at concentrations of 0.05, 0.1, and 0.2 mM, respectively. FIGS. 2A and 2B show the promoter activities of hrpN in Dickeya dadantii 3937 (Ech3937) grown in MM and MM supplemented with 0.05, 0.1, and 0.2 mM OCA, TCA, and SA at 12 h (FIG. 2A) and 24 h (FIG. 2B) post-inoculation. GFP intensity was determined on gated populations of bacterial cells by flow cytometry and analyzed with the Cell Quest software (BD Biosciences, San Jose, Calif.). The growth of Ech3937 in MM supplemented with different concentrations of OCA, TCA and SA was recorded. Compared with MM alone, the average GFP fluorescence intensity of bacterial cells of Ech3937 (phrpN) was increased approximately 4-fold when 0.05 mM of OCA and TCA were added to the medium (FIGS. 2A, 2B).
The expression of the T3SS gene hrpA was further examined in MM and MM supplemented with PCA at concentrations of 0.001, 0.005, 0.01, 0.05 and 0.1 mM respectively. FIGS. 16A and 16B show the promoter activities of hrpA in Dickeya dadantii 3937 (Ech3937) grown in minimum medium (MM) and MM supplemented with different amount of p-coumaric acid (PCA) at 12 h (FIG. 16A) and 24 h (FIG. 16B) post-inoculation. GFP intensity was determined on gated populations of bacterial cells by flow cytometry and analyzed with the Cell Quest software (BD Biosciences, San Jose, Calif.). The growth of Ech3937 in MM supplemented with different concentrations of PCA was recorded. Compared with MM alone, the average GFP fluorescence intensity of bacterial cells of Ech3937 (phrpA) was reduced more than 4-fold when 0.05 and 0.1 mM of PCA were added to the medium (FIGS. 16A, 16B).

[4] = test system: exoS promoter (T3SS); test: exoS promoter-gfp reporter pATexoS, flow cytometry; format: cell-based, P. aeruginosa PA01; conditions: for Actual readings of flow cytometry (exoS expression): 6 h, LB with 200 mM NaCl, 10 mM NTA; for Fraction of untreated control (exoS expression): structure-activity table, concentration not given
Experimental: To identify T3SS inhibitors of PA01, a promoter-probe vector pPROBE-AT containing the promoterless green fluorescent protein (gfp) gene was used to construct an exoS promoter-gfp plasmid reporter, pATexoS. PA01 containing pATexoS was cultured in T3SS-inducing medium containing dimethyl sulfoxide (DMSO; solvent of chemical compounds), or supplemented with 250 μM of each compound, and promoter activity was assessed at 6 h by measuring GFP intensity using flow cytometry. 101 compounds (58 synthesized and 43 commercially available) were screened. Compounds 027, 032, 101, and 149 repressed exoS expression at the final concentration of 250 μM by at least one standard deviation below the sample average (Z score≦−1) (FIG. 37 A-E). Z score (or standard score) indicates how many standard deviations an observation or datum is above or below the mean [z=(x−μ)/σ, where x is a raw score to be standardized, μ is the mean of the population, and σ is the standard deviation of the population].
To determine the effective concentration of compounds, the dose-dependent effect of potential inhibitors on exoS expression and bacterial growth were tested. P. aeruginosa cells carrying pATexoS were pre-cultured in LB supplemented with 200 mM NaCl and transferred to fresh LB with 200 mM NaCl, 10 mM NTA, and various concentrations of compounds (20, 50, 100, and 250 μM) or DMSO for 6 h. […] At 50 μM dosage, both 027 and 101 inhibited exoS expression at similar levels, and this inhibitory effect increased as compound concentration increased (FIG. 38A and Table 17). […] These inhibitions/inductions of exoS expression are caused by the shifting bacterial population between low-state expression cells and high-state expression cells (FIG. 40).

Row | Structure (SMILES) | GFP Mean Fluorescence Intensity, mrp promoter (reference gene) ([1]; Ech3937 (pmrp), MM + 0.1 mM compound, 12 h) | GFP Mean Fluorescence Intensity, vector control ([2]; 12 h) | effect on bacterial growth of Ech3937 in MM, in words [3] | GFP Mean Fluorescence Intensity, vector control ([2]; 12 h, listed as PCA) | GFP Mean Fluorescence Intensity, vector control ([2]; 24 h) | Actual readings of flow cytometry (exoS expression) ([4]; 20 uM) | Actual readings of flow cytometry (exoS expression) ([4]; 50 uM) | Actual readings of flow cytometry (exoS expression) ([4]; 100 uM) | Actual readings of flow cytometry (exoS expression) ([4]; 250 uM) | effect on exoS promoter activity, in words ([4]; screening for T3SS inhibitors) | Fraction of untreated control (exoS expression) [4] | GFP Mean Fluorescence Intensity, vector control ([2]; 6 h) | mean fluorescence intensity of GFP, mrp promoter ([1]; 12 h) | mean fluorescence intensity of GFP, mrp promoter ([1]; 24 h) | mean fluorescence intensity of GFP, vector control ([2]; 12 h) | mean fluorescence intensity of GFP, vector control ([2]; 24 h)
1 | O=C(O)/C=C/c1ccccc1 [Compound 001, trans-cinnamic acid] | 105 ± 0.3 | 1.9 ± 0 | No reduction of bacterial growth |  |  |  |  |  |  |  |  |  |  |  |  | 
2 | O=C(O)/C=C/c1ccc(O)cc1 [Compound 004, para-coumaric acid] |  |  | Inhibition of bacterial growth was not observed | 2.2 ± 0.2 and 2.3 ± 0.1 | 4.9 ± 0.1 | 119.08 ± 1.82 | 127.05 ± 4.43 | 118.16 ± 2.73 | 117.74 ± 5.09 | little or no effect on exoS promoter activity | 0.94 ± 0.05 |  |  |  |  | 
3 | O=C(O)/C=C/c1ccccc1O [Compound 006, Ortho-coumaric acid] |  | 2.0 ± 0 | No reduction of bacterial growth |  | 1.9 ± 0 |  |  |  |  |  |  | 2.0 ± 0 |  |  |  | 
4 | O=C(/C=C/c1ccc(O)cc1)NO [Compound 103, trans-4-Hydroxycinnamohydroxamic acid] |  |  |  |  |  | 179.07 ± 2.98 | 237.31 ± 4.94 | 279.16 ± 2.72 | 328.30 ± 3.24 |  | 2.04 ± 0.13 |  | 81.2 ± 0.7 | 67.7 ± 2.5 | 3.0 ± 0.6 | 4.3 ± 0.6
